Measured values: ChEMBL document CHEMBL3227918, “Synthesis and pharmacological evaluation of cis-3,4,4a,9a-tetrahydro-1H-pyrano[3,4-b]benzofuran-1-ones. Tricyclic analogues related to the antilipidemic drug clofibrate” (J Med Chem, 1979)

Columns and labels:
[1] = test system: Rattus norvegicus; assay: Antilipidemic activity against Sprague-Dawley rat assessed as increase in liver cyt b activity measured per mg of protein at 0.4 mmol/kg, po twice daily for 7 days (reference value: 0.310 +/- 0.052 nmol); assay type: functional
[2] = test system: Rattus norvegicus; assay: Antilipidemic activity against Sprague-Dawley rat assessed as increase in liver NADPH:cyt c reductase activity at 0.4 mmol/kg, po twice daily for 7 days (reference value: 164 +/- 16.7 nmol/mg/min); assay type: functional
[3] = test system: Rattus norvegicus; assay: Antilipidemic activity against Sprague-Dawley rat assessed as liver triglyceride level per gram of tissue at 0.4 mmol/kg, po twice daily for 7 days (reference value: 3.87 +/- 0.59 mg); assay type: functional
[4] = test system: Rattus norvegicus; assay: Effect on microsomal protein content in Sprague-Dawley rat at 0.4 mmol/kg, po twice daily for 7 days (reference value: 25.8 +/- 1.17 mg/g); assay type: functional
[5] = test system: Rattus norvegicus; assay: Antilipidemic activity against Sprague-Dawley rat assessed as increase in liver ethylmorphine N-demethylase activity measured as HCHO formation per mg/min at 0.4 mmol/kg, po twice daily for 7 days (reference value: 6.48 +/- 0.70 nmol); assay type: functional
[6] = test system: Rattus norvegicus; assay: Effect on liver weight in Sprague-Dawley rat at 0.4 mmol/kg, po twice daily for 7 days (reference value: 11.8 +/- 0.93 g); assay type: ADME, organism-based; details: in vivo, 168 h
[7] = test system: Rattus norvegicus; assay: Antilipidemic activity against Sprague-Dawley rat assessed as increase in liver cyt P-450 activity measured per mg of protein at 0.4 mmol/kg, po twice daily for 7 days (reference value: 0.833 +/- 0.0644 nmol); assay type: functional
[8] = test system: Rattus norvegicus; assay: Antilipidemic activity against Sprague-Dawley rat assessed as increase in liver to body weight at 0.4 mmol/kg, po twice daily for 7 days (reference value: 3.96 +/- 0.20 mg/g); assay type: functional
[9] = molecular target: T1, 3-hydroxy-3-methylglutaryl-coenzyme A reductase (Rattus norvegicus) (UniProt P51639); assay: Inhibition of Sprague-Dawley rat liver microsome HMG-CoA reductase activity assessed as mevalonic acid formation form DL-3-hydroxy-3-methylglutaryl[3-14C]coenzyme by scintillation counting (reference value: 13.2 +/- 3.30 nmol/mg/h)
T1 sequence (whole entry): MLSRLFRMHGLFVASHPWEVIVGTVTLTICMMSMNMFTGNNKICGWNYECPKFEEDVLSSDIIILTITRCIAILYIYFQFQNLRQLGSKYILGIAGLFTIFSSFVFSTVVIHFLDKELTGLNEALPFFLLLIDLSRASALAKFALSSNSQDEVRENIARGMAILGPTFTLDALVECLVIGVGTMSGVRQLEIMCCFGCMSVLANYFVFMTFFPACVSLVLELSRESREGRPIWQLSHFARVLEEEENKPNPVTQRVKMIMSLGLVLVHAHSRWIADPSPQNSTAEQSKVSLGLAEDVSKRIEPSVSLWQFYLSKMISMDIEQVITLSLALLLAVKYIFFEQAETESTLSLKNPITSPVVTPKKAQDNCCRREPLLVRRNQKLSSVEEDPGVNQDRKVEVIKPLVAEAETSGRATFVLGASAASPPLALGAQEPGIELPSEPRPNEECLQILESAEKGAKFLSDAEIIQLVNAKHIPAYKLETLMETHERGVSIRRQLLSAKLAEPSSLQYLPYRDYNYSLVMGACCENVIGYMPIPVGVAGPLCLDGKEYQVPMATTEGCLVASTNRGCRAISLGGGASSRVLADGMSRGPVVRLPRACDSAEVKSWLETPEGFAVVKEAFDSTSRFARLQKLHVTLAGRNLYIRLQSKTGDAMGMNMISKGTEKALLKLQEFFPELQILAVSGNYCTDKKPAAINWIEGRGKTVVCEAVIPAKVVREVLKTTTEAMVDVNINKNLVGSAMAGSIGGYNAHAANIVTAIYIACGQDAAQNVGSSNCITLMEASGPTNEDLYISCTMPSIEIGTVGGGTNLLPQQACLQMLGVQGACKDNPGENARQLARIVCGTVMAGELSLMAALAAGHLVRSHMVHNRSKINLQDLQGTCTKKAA

[10] = test system: Rattus norvegicus; assay: Antilipidemic activity against Sprague-Dawley rat assessed as liver cholesterol level per gram of tissue at 0.4 mmol/kg, po twice daily for 7 days (reference value: 2.96 +/- 0.42 mg); assay type: functional

| SMILES | Activity [1] [nmol] | Activity [2] [nmol/mg/min] | Activity [3] [mg] | Activity [4] [mg/g] | Activity [5] [nmol] | Activity [6] [g] | Activity [7] [nmol] | Activity [8] [%] | Activity [9] [nmol/mg/h] | Activity [10] [mg] |
| --- | --- | --- | --- | --- | --- | --- | --- | --- | --- | --- |
| CCOC(=O)C(C)(C)Oc1ccc(Cl)cc1 [CLOFIBRATE] | 0.293 | 246 | 4.65 | 29 | 7.82 | 15.1 | 1.06 | 4.84 | 11.3 | 2.59 |
| C[C@@]12Oc3ccc(Cl)cc3[C@@H]1CCOC2=O (relative stereo) | 0.421 | 315 | 7.75 | 31.9 | 11.1 | 14.1 | 1.62 | 4.56 | 8.2 | 3.19 |
| O=C1OCC[C@H]2c3cc(Cl)ccc3O[C@@H]12 (relative stereo) | 0.292 | 210 | 5.66 | 25.2 | 7.96 | 12.1 | 0.962 | 4.03 | 11 | 2.93 |
